The record followed here is US20180179198A1, “TRICYCLIC MODULATORS OF TNF SIGNALING” (AbbVie Inc., priority 2015, published 2018).

This experiment deals with TNFα trimer (Homo sapiens, UniProt P01375). Description: TNFα FP Competitive Binding Assay. To be noted: TNFα FP competitive binding assay; class symbols A/B/C; read-out: TNF IC50. In short, it runs like this:
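Compounds, 12-point 1:3 dilutions topping at 100 μM (2.0% DMSO) or 338 μM (3.4% DMSO) final, compete with 1 nM fluorescent probe for 20 nM TNFα trimer in HEPES/NaCl/EDTA/Triton buffer. After 18-24 h incubation at 37 °C plus 1 h rt equilibration, background-subtracted polarization is read and fitted with variable slope.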

pIC50: −log10 of the molar value.

Chain of TNFα trimer (P01375 77-233 limits assumed): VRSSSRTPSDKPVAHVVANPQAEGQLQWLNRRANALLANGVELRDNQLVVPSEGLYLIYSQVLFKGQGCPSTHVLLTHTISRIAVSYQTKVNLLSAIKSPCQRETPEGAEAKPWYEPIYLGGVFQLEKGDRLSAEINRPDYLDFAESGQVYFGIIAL

For `c1ccc(C2COCc3nc4ccc(-c5cnc(-n6ccnc6)cn5)cc4n32)cc1` (centres unmarked) [T.9], the pIC50 is 5.00 to 6.00.

Take `c1ccc(C2COCc3nc4ccc(-c5ccc(N6CCNCC6)nc5)cc4n32)cc1` (centres unmarked) [T.10]: the pIC50 was 5.00 to 6.00.

Consider `CN1CCOc2cc(-c3ccc4nc5n(c4c3)C(c3ccccc3)COC5)cnc21` (centres unmarked) [T.11], for which the pIC50 is 5.00 to 6.00. In the case of `Cc1cc(-c2ccc3nc4n(c3c2)C(c2ccccc2)COC4)cnc1N1CCOCC1` (centres unmarked) [T.12], the pIC50 was 5.00 to 6.00. For the compound `CC(=O)N1CCN(c2ccc(-c3ccc4nc5n(c4c3)C(c3ccccc3)COC5)cn2)CC1` (centres unmarked) [T.13], the pIC50 was 5.00 to 6.00. For `CN(C)c1ncc(-c2ccc3nc4n(c3c2)C(c2ccccc2)COC4)cn1` (centres unmarked) [T.14], the pIC50 was 5.00 to 6.00. `N#Cc1ncc(-c2ccc3nc4n(c3c2)C(c2ccccc2)COC4)cn1` (centres unmarked) [T.15]: the pIC50 was 5.00 to 6.00.

Take `N#Cc1ccc(-c2ccc3nc4n(c3c2)C(c2ccccc2)COC4)cn1` (centres unmarked) [T.16]: the pIC50 was 5.00 to 6.00. `c1ccc(C2COCc3nc4ccc(-c5cnc(NC6CCCC6)nc5)cc4n32)cc1` (centres unmarked) [T.17]: the pIC50 is 5.00 to 6.00. Consider `Cc1ccc(-c2ccc3nc4n(c3c2)C(c2ccccc2)COC4)cn1` (centres unmarked) [T.18], for which the pIC50 was 5.00 to 6.00.

As for `c1ccc(C2COCc3nc4ccc(-c5cnc6nccnc6c5)cc4n32)cc1` (centres unmarked) [T.19], the pIC50 is 4.00 to 5.00. Take `CN1CCN(c2ccc(-c3ccc4nc5n(c4c3)C(c3ccccc3)COC5)cn2)CC1` (centres unmarked) [T.20]: the pIC50 was 5.00 to 6.00.

For the compound `c1ccc(C2COCc3nc4ccc(-c5cnc(-n6cccn6)cn5)cc4n32)cc1` (centres unmarked) [T.21], the pIC50 was 5.00 to 6.00. `COc1ncc(-c2ccc3nc4n(c3c2)C(c2ccccc2)COC4)cn1` (centres unmarked) [T.22]: the pIC50 was 5.00 to 6.00. Take `c1ccc(C2COCc3nc4ccc(-c5cnc(-n6cccn6)nc5)cc4n32)cc1` (centres unmarked) [T.23]: the pIC50 was 5.00 to 6.00. Take `c1ccc(C2COCc3nc4ccc(-c5cnc(NC6CC6)nc5)cc4n32)cc1` (centres unmarked) [T.24]: the pIC50 is 5.00 to 6.00. On to `c1ccc(C2COCc3nc4ccc(-c5ccc(N6CCOCC6)nc5)cc4n32)cc1` (centres unmarked) [T.25], for which the pIC50 is more than 6.00.

Consider `c1ccc(C2COCc3nc4ccc(-c5cncnc5)cc4n32)cc1` (centres unmarked) [T.26], for which the pIC50 is 4.00 to 5.00.

Turning to `c1ccc(C2COCc3nc4ccc(-c5ccc(NCCN6CCOCC6)nc5)cc4n32)cc1` (centres unmarked) [T.28], the pIC50 is 4.00 to 5.00. As for `c1ccc(C2COCc3nc4ccc(-c5cnc6ccoc6c5)cc4n32)cc1` (centres unmarked) [T.29], the pIC50 was 5.00 to 6.00.

Regarding `Cc1cc(-c2ccc3nc4n(c3c2)C(c2ccccc2)COC4)cnc1OC(C)C` (centres unmarked) [T.30], the pIC50 is 5.00 to 6.00. Consider `Cc1ncc(-c2ccc3nc4n(c3c2)C(c2ccccc2)COC4)cn1` (centres unmarked) [T.31], for which the pIC50 is 5.00 to 6.00. With `Cn1cnc2cc(-c3ccc4nc5n(c4c3)C(c3ccccc3)COC5)cnc21` (centres unmarked) [T.32], the pIC50 was 4.00 to 5.00. Regarding `FC(F)(F)c1ccc(-c2ccc3nc4n(c3c2)C(c2ccccc2)COC4)cn1` (centres unmarked) [T.33], the pIC50 is 5.00 to 6.00.

Turning to `Cc1cc(-c2ccc3nc4n(c3c2)C(c2ccccc2)COC4)cnc1N1CCN(C)CC1` (centres unmarked) [T.34], the pIC50 was 5.00 to 6.00. Under `CC(C)(O)c1ncc(-c2ccc3nc4n(c3c2)C(c2ccccc2)COC4)cn1` (centres unmarked) [T.35] stands more than 6.00; under `Fc1ccc(F)c(C2COCc3nc4ccc(-c5cnc(N6CCOCC6)nc5)cc4n32)c1` (centres unmarked) [U.1], more than 6.00; under `Fc1cccc(C2COCc3nc4ccc(-c5cnc(N6CCOCC6)nc5)cc4n32)c1` (centres unmarked) [U.2, 4-(3-Fluorophenyl)-7-(2-morpholinopyrimidin-5-yl)-3,4-dihydro-1H-benzo[4,5]imidazo[2,1-c][1,4]oxazine], 5.00 to 6.00.

In the case of `O=C1NCC2CN(c3ncc(-c4ccc5nc6n(c5c4)C(c4cccc(F)c4)COC6)cn3)CCN12` (centres unmarked) [V.1], the pIC50 is more than 6.00. For `O=C1NCC2CN(c3ncc(-c4ccc5nc6n(c5c4)C(c4ccccc4Cl)COC6)cn3)CCN12` (centres unmarked) [V.2] the value was more than 6.00. As for `O=C1NCC2CN(c3ncc(-c4ccc5nc6n(c5c4)C4(CCc5ccccc54)COC6)cn3)CCN12` (centres unmarked) [V.3], the negative logarithm of the IC50 (pIC50) is more than 6.00. With `OC1CCN(c2ncc(-c3ccc4nc5n(c4c3)[C@@H](c3ccccc3)COC5)cn2)CC1(F)F` (some centres unmarked) [W.1], the pIC50 was more than 6.00.

As for `OC1CC2(CCN(c3ncc(-c4ccc5nc6n(c5c4)[C@@H](c4ccccc4)COC6)cn3)CC2)C1` [W.2], the pIC50 was more than 6.00. Take `O=S1(=O)CCN(c2ncc(-c3ccc4nc5n(c4c3)[C@@H](c3ccccc3)COC5)cn2)CC1` [W.3]: the pIC50 is more than 6.00. On to `OC1CCN(c2ncc(-c3ccc4nc5n(c4c3)C(c3cccc(F)c3)COC5)cn2)CC1(F)F` (centres unmarked) [X.1], for which the pIC50 is more than 6.00.

Turning to `OC1CC2(CCN(c3ncc(-c4ccc5nc6n(c5c4)C(c4cccc(F)c4)COC6)cn3)CC2)C1` (centres unmarked) [X.2], the pIC50 is more than 6.00. In the case of `Fc1cccc(C2COCc3nc4ccc(-c5cnc(N6CCCOCC6)nc5)cc4n32)c1` (centres unmarked) [X.3], the pIC50 was more than 6.00. For the compound `c1ccc([C@H]2CCCc3nc4ccc(-c5cnc(N6CCOCC6)nc5)cc4n32)cc1` [Y.1], the pIC50 is more than 6.00. In the case of `CC(C)(O)c1ncc(-c2ccc3nc4n(c3c2)[C@@H](c2ccccc2)CCC4)cn1` [Y.2], the pIC50 is more than 6.00.

For `CC(C)(O)c1ncc(-c2ccc3nc4n(c3c2)[C@H](c2ccccc2)CCC4)cn1` [Y.3], the pIC50 was 5.00 to 6.00. For the compound `CC(C)(O)c1ncc(-c2ccc3nc4n(c3c2)[C@H](c2ccccc2)CC4)cn1` [Y.4], the pIC50 was 4.00 to 5.00. Under `COc1ccccc1[C@@H]1CCCc2nc3ccc(-c4cnc(C(C)(C)O)nc4)cn3c21` [Y.5] stands 5.00 to 6.00; under `COc1ccccc1[C@H]1CCCc2nc3ccc(-c4cnc(C(C)(C)O)nc4)cn3c21` [Y.6], more than 6.00; under `Fc1cccc([C@H]2COCc3nc4ccc(-c5cnc(N6CCOCC6)nc5)cc4n32)c1` [Y.7], more than 6.00.

Take `Cc1ccc(C)c([C@H]2CCc3nc4ccc(-c5cnc(C(C)(C)O)nc5)cc4n32)c1` [Y.8]: the pIC50 is more than 6.00. Regarding `Cc1ccc(C)c([C@@H]2CCc3nc4ccc(-c5cnc(C(C)(C)O)nc5)cc4n32)c1` [Y.9], the pIC50 was 5.00 to 6.00. Consider `c1ccc([C@H]2CCc3nc4ccc(-c5cnc(N6CCOCC6)nc5)nc4n32)cc1` [Y.10], for which the pIC50 is more than 6.00. For `OC1CCN(c2ncc(-c3ccc4nc5n(c4n3)[C@@H](c3ccccc3)CC5)cn2)CC1` [Y.11] the value was more than 6.00; for `CC(C)(O)c1ncc(-c2ccc3nc4n(c3n2)[C@@]2(COC4)COc3ccccc32)cn1` [Y.13], more than 6.00; for `CC(C)(O)c1ncc(-c2ccc3nc4n(c3n2)[C@]2(CCOc3ccccc32)COC4)cn1` [Y.14], more than 6.00. With `CC(C)(O)c1ncc(-c2ccc3nc4n(c3n2)[C@@]2(CCOc3ccccc32)COC4)cn1` [Y.15], the pIC50 was 5.00 to 6.00. Turning to `COc1ccccc1[C@H]1COCc2nc3ccc(-c4cnc(C(C)(C)O)nc4)cc3n21` [Z.1], the pIC50 is more than 6.00. For `CC(C)(O)c1ncc(-c2ccc3nc4n(c3c2)C(c2c(Cl)cccc2Cl)COC4)cn1` (centres unmarked) [Z.2], the pIC50 is more than 6.00.
